# Test results reported in article PMC8173106, “Modulating Enzyme Function via Dynamic Allostery within Biliverdin Reductase B” (Frontiers in Molecular Biosciences, 2021).
# Molecular target: T1, human BLVRB (biliverdin reductase B) (Homo sapiens, UniProt P30043)
# T1 construct: full length, 206 residues; codon-optimised, pET21b (T164S in pJ401k); N-terminal 6xHis tag removed with thrombin
# T1 sequence (P30043 1-206): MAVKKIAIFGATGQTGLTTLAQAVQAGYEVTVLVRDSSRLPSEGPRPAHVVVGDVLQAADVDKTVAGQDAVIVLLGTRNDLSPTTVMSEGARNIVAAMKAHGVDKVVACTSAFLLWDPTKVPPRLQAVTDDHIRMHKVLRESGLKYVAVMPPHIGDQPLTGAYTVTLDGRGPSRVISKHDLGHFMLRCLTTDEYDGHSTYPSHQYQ
# Experiment: isothermal titration calorimetry
# Assay type: binding
# Conditions: 50 mM bis-tris, pH 6.5, 50 mM NaCl, 20 C; apo enzyme
smiles,measurement,value
NC(=O)c1ccc[n+]([C@@H]2O[C@H](COP(=O)(O)OP(=O)(O)OC[C@H]3O[C@@H](n4cnc5c(N)ncnc54)[C@H](OP(=O)(O)O)[C@@H]3O)[C@@H](O)[C@H]2O)c1 [NADP^+],KD,screened for their dissociation constants (KD) to NADP^+ using ITC
